Results on two compounds are retold here after PMC10643566, “Insights into the mechanism of SARS-CoV-2 main protease autocatalytic maturation from model precursors” (Communications Biology, 2023).

Where “and” joins values, the source holds several entries; their conditions need not be identical. Identical values can stand only once.

For one data set, the system named is nsp4/nsp5 cleavage site. It is filed as biochemical, SARS-CoV-2.
In data set [1] the target is MPro^M (E290A and R298A mutations). Particulars: read-out: GC373 binding (Kd), determined by ITC, ref [11],[13]; cited from earlier work.
In a further data set the target is MPro^WT. Particulars: read-out: GC373 binding (Kd), determined by ITC, ref [11],[13]; cited from earlier work.
The target of data set [2] is MPro^1–199 (catalytic domain). Particulars: read-out: GC373 binding (Kd), determined by ITC, ref [11],[13]; cited from earlier work.

Turning to “^(−25)MPro^1–199: precursor with 25 nsp4 residues appended to the N-terminus of catalytic domain MPro^1–199”, in the data set with nsp4/nsp5 cleavage site, the “% Conversion at 15 h” value was 32.2% and 32.4%; the “% Conversion at 24 h” value was 42.2% and 43.2%; the “Δ[P] at 24 h” value is 40.5 ± 0.4 µM and 20.7 ± 0.2 µM.
For the compound `CC(C)C[C@H](NC(=O)OCc1ccccc1)C(=O)N[C@H](C=O)C[C@@H]1CCNC1=O` [GC373], the equilibrium dissociation constant (Kd) is 6.13 ± 0.3 µM in data set [1], 0.15 µM on MPro^WT and 32 ± 5 µM in data set [2].
